The test concerns the target T1, JNK1α1 (Homo sapiens, UniProt P45983).
T1 construct: catalytic domain containing amino acids 1-364 and N-terminal hexahistidine tag; hexahistidine (His6) (N); made in house; host or cells: E. coli BL21 (DE3)
The test is described as follows: Coupled spectrophotometric (PK/LDH) JNK1α1 assay: % inhibition and Ki determination. The format is biochemical. The note with it: JNK-1. The protocol: % Inhibition and Ki Determination
A coupled spectrophotometric assay, coupling JNK1α1 activity to the oxidation of β-NADH to NAD+ through the action of pyruvate kinase (PK) and lactic dehydrogenase (LDH), was used to determine the potency (percent inhibition at 1 or 10 μM or Ki) of compounds against JNK1α1 (Genbank Accession Number: L26318). […] The reaction was monitored by following the decrease in absorbance at 340 nm. The initial reaction rate was determined by the slope of the change in absorbance. To calculate percent inhibition the rate of the reaction in the presence of 1 or 10 μM compound was compared to the rate of the reaction with only DMSO multiplied by 100 percent. Note, the background rate of the above reaction in the presence of 10 μM PHA-00738186 was subtracted from all rates. […] Y=(−X+Eo−(Ki*(1+A/Km))+((X−Eo+(Ki*(1+A/Km)))^2+4*Eo*(Ki*(1+A/Km)))^0.5)*(Vm*A/(Km+A)/(2*Eo)) Formula: • Parameters: Eo, Ki, A, Km, Vo • Y is initial reaction velocity; • X is inhibitor concentration; • A is [ATP]; • Ki is inhibition constant; • Vm is Vmax; • Eo is total (initial) enzyme concentration; • Km is ATP Km;
The compounds were prepared in 100% DMSO at a 40× concentration. For percent inhibition experiments this would be 400 or 40 μM for 10 and 1 μM final concentration, respectively. For the Ki determination 3× serial dilutions were made starting at 4 mM (100 μM at 1×) in DMSO. A total of 11 concentrations were used for the analysis. The compounds were added to the reaction plate first. Next, a solution containing the HEPES, MgCl2, DTT, peptide substrate, NADH, PEP, PK/LDH enzyme, and JNK1α1—364nHis enzyme was added to the assay plate. The plate was incubated at room temperature for 15 minutes. Then the plate was warmed to 30° C. for 5 minutes. The reaction was initiated with the addition of ATP. The reaction was run in a plate reader at 30° C. for 20 minutes with absorbance readings made about every 10 seconds.
The column with “#” heading refers to compound number as exemplified in the Examples section. The column with “Ki” heading refers to Ki (in nM). The column with “% Inhibition” heading refers to percent inhibition of JNK-1 at 1 μM or 10 μM (in %) unless otherwise stated. ND refers to no data was taken.

The structures appear in SMILES notation. Bounds are passed on as bounds.

T1 sequence (P45983 1-364): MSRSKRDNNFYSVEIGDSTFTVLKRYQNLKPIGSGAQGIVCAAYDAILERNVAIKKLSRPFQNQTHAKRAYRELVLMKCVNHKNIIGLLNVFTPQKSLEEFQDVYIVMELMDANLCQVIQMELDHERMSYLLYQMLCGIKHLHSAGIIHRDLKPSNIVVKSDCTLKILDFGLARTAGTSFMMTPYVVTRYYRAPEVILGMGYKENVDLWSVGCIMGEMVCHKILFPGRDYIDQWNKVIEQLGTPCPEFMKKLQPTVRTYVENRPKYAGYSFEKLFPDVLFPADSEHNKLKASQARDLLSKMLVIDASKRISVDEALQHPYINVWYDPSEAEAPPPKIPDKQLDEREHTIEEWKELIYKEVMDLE

`COCCC(=O)Nc1cc2cc(-c3cn[nH]c3)ccc2cn1` [Example 27, 3-methoxy-N-[6-(1H-pyrazol-4-yl)isoquinolin-3-yl]propanamide] displayed an inhibition constant Ki of 4 nM.
In the case of `COC1CCC(C(=O)Nc2cc3cc(-c4cn[nH]c4)ccc3cn2)CC1` (stereo not drawn) [Example 28, 4-methoxy-N-[6-(1H-pyrazol-4-yl)isoquinolin-3-yl]cyclohexanecarboxamide] it was 32 nM; in that of `O=C(CCc1cncnc1)Nc1cc2cc(-c3cn[nH]c3)ccc2cn1` [Example 29, N-[6-(1H-pyrazol-4-yl)isoquinolin-3-yl]-3-pyrimidin-5-ylpropanamide], 22 nM.
In the case of `O=C(Cn1cc(-c2ccccn2)nn1)Nc1cc2cc(-c3cn[nH]c3)ccc2cn1` [Example 30, N-[6-(1H-pyrazol-4-yl)isoquinolin-3-yl]-2-(4-pyridin-2-yl-1H-1,2,3-triazol-1-yl)acetamide] it was 18 nM; in that of `CC(C)(C)OC(=O)NC(CC(=O)Nc1cc2cc(-c3cn[nH]c3)ccc2cn1)c1c(F)cccc1F` (stereo not drawn) [Example 31, tert-butyl (1-(2,6-difluorophenyl)-3-oxo-3-{[6-(1H-pyrazol-4-yl)isoquinolin-3-yl]amino}propyl)carbamate], 3 nM.
The value for `O=C(COc1cccc(-c2cnccn2)c1)Nc1cc2cc(-c3cn[nH]c3)ccc2cn1` [Example 32, 2-(3-pyrazin-2-ylphenoxy)-N-[6-(1H-pyrazol-4-yl)isoquinolin-3-yl]acetamide] was 8 nM.
Compound `O=C(Cc1c(F)cccc1C(F)(F)F)Nc1cc2cc(-c3cn[nH]c3)ccc2cn1` [Example 33, N-[6-(1H-pyrazol-4-yl)isoquinolin-3-yl]-2-[2-(trifluoromethyl-6-fluoro)phenyl]acetamide] returned a Ki of 7 nM.
As for `O=C(CN1N=C(c2ccccc2)CCC1=O)Nc1cc2cc(-c3cn[nH]c3)ccc2cn1` [Example 34, 2-(6-oxo-3-phenyl-5,6-dihydropyridazin-1(4H)-yl)-N-[6-(1H-pyrazol-4-yl)isoquinolin-3-yl]acetamide], the Ki amounted to 17 nM.
Regarding `O=C(CNC(=O)C1(c2ccccc2)CC1)Nc1cc2cc(-c3cn[nH]c3)ccc2cn1` [Example 35, N-(2-oxo-2-{[6-(1H-pyrazol-4-yl)isoquinolin-3-yl]amino)ethyl)-1-phenylcyclopropanecarboxamide], the Ki is 8 nM.
In the case of `CC(C)(C)OC(=O)N1C[C@H](C(=O)Nc2cc3cc(-c4cn[nH]c4)ccc3cn2)[C@@H](c2ccccc2)C1` [Example 36] it was 8 nM; in that of `O=C(Cn1nc(C(F)(F)F)c2c1CCCC2)Nc1cc2cc(-c3cn[nH]c3)ccc2cn1` [Example 37, N-[6-(1H-pyrazol-4-yl)isoquinolin-3-yl]-2-[3-(trifluoromethyl)-4,5,6,7-tetrahydro-1H-indazol-1-yl]acetamide], 2 nM.
Take `O=C(Nc1cc2cc(-c3cn[nH]c3)ccc2cn1)C1COc2ccccc2C1` (stereo not drawn) [Example 38, N-[6-(1H-pyrazol-4-yl)isoquinolin-3-yl]chromane-3-carboxamide]: the Ki came to 14 nM.
Compound `O=C(CCc1ccc(C(F)(F)F)cc1)Nc1cc2cc(-c3cn[nH]c3)ccc2cn1` [Example 39, N-[6-(1H-pyrazol-4-yl)isoquinolin-3-yl]-3-[4-(trifluoromethyl)phenyl]propanamide] returned a Ki of 7 nM.
The value for `CN(C)C(=O)CCC(=O)Nc1cc2cc(-c3cn[nH]c3)ccc2cn1` [Example 40, N,N-dimethyl-N′-[6-(1H-pyrazol-4-yl)isoquinolin-3-yl]succinamide] was 8 nM; that for `COc1ccc(CCCC(=O)Nc2cc3cc(-c4cn[nH]c4)ccc3cn2)cc1` [Example 41, 4-(4-methoxyphenyl)-N-[6-(1H-pyrazol-4-yl)isoquinolin-3-yl]butanamide] was 14 nM.
Consider `O=C(CCc1cccc(C(F)(F)F)c1)Nc1cc2cc(-c3cn[nH]c3)ccc2cn1` [Example 42, N-[6-(1H-pyrazol-4-yl)isoquinolin-3-yl]-3-[3-(trifluoromethyl)phenyl]propanamide], for which the Ki was found to be 5 nM.
The value for `Cc1cnc(C(=O)NCC(=O)Nc2cc3cc(-c4cn[nH]c4)ccc3cn2)cn1` [Example 43, 5-methyl-N-(2-oxo-2-{[6-(1H-pyrazol-4-yl)isoquinolin-3-yl]amino}ethyl)pyrazine-2-carboxamide] was 8 nM; that for `O=C(CCc1ccc(F)cc1)Nc1cc2cc(-c3cn[nH]c3)ccc2cn1` [Example 44, 3-(4-fluorophenyl)-N-[6-(1H-pyrazol-4-yl)isoquinolin-3-yl]propanamide] was 11 nM; that for `O=C(Cc1ccc(C(F)(F)F)cc1)Nc1cc2cc(-c3cn[nH]c3)ccc2cn1` [Example 45, N-[6-(1H-pyrazol-4-yl)isoquinolin-3-yl]-2-[4-(trifluoromethyl)phenyl]acetamide] was 21 nM.
In the case of `Cc1sc(-c2ccccc2)nc1CC(=O)Nc1cc2cc(-c3cn[nH]c3)ccc2cn1` [Example 46, 2-(5-methyl-2-phenyl-1,3-thiazol-4-yl)-N-[6-(1H-pyrazol-4-yl)isoquinolin-3-yl]acetamide], affinity was put at a Ki of 5 nM.
The value for `COc1ccc2c(c1)CCC2C(=O)Nc1cc2cc(-c3cn[nH]c3)ccc2cn1` (stereo not drawn) [Example 47, 5-methoxy-N-[6-(1H-pyrazol-4-yl)isoquinolin-3-yl]indane-1-carboxamide] was over 50 nM; that for `O=C(Cn1cnnn1)Nc1cc2cc(-c3cn[nH]c3)ccc2cn1` [Example 48, N-[6-(1H-pyrazol-4-yl)isoquinolin-3-yl]-2-(1H-tetrazol-1-yl)acetamide] was 15 nM; that for `O=C(COCc1ccccc1)Nc1cc2cc(-c3cn[nH]c3)ccc2cn1` [Example 49, 2-(benzyloxy)-N-[6-(1H-pyrazol-4-yl)isoquinolin-3-yl]acetamide] was 3 nM.
`CC(C)c1ccc(OCC(=O)Nc2cc3cc(-c4cn[nH]c4)ccc3cn2)cc1` [Example 50, 2-(4-isopropylphenoxy)-N-[6-(1H-pyrazol-4-yl)isoquinolin-3-yl]acetamide] had a Ki of 3 nM.
The value for `Cc1oc(-c2ccccc2)nc1CC(=O)Nc1cc2cc(-c3cn[nH]c3)ccc2cn1` [Example 51, 2-(5-methyl-2-phenyl-1,3-oxazal-4-yl)-N-[6-(1H-pyrazol-4-yl)isoquinolin-3-yl]acetamide] was 8 nM; that for `Cn1c(=O)c2c(ncn2CC(=O)Nc2cc3cc(-c4cn[nH]c4)ccc3cn2)n(C)c1=O` [Example 52, 2-(1,3-dimethyl-2,6-dioxo-1,2,3,6-tetrahydro-7H-purin-7-yl)-N-[6-(1H-pyrazol-4-yl)isoquinolin-3-yl]acetamide] was 15 nM; that for `COc1ccccc1CC(=O)Nc1cc2cc(-c3cn[nH]c3)ccc2cn1` [Example 53, 2-(2-methoxyphenyl)-N-[6-(1H-pyrazol-4-yl)isoquinolin-3-yl]acetamide] was 21 nM.
`O=C(Nc1cc2cc(-c3cn[nH]c3)ccc2cn1)[C@H]1C[C@@H]1c1ccccc1` [Example 54, (1S,2S)-2-phenyl-N-[6-(1H-pyrazol-4-yl)isoquinolin-3-yl]cyclopropanecarboxamide] returned a Ki of 8 nM.
In the case of `O=C(CC(c1ccccc1)c1ccccc1)Nc1cc2cc(-c3cn[nH]c3)ccc2cn1` [Example 55, 3,3-diphenyl-N-[6-(1H-pyrazol-4-yl)isoquinolin-3-yl]propanamide] it was 5 nM; in that of `O=C(CNC(=O)c1ccc(O)c(Cl)c1)Nc1cc2cc(-c3cn[nH]c3)ccc2cn1` [Example 56, 3-chloro-4-hydroxy-N-(2-oxo-2-{[6-(1H-pyrazol-4-yl)isoquinolin-3-yl]amino}ethyl)benzamide], 17 nM.
The value for `CC(C)[C@@H]1CC[C@@H](C)C[C@H]1OCC(=O)Nc1cc2cc(-c3cn[nH]c3)ccc2cn1` [Example 57, 2-{[(1R,2S,5R)-2-isopropyl-5-methylcyclohexyl]oxy}-N-[6-(1H-pyrazol-4-yl)isoquinolin-3-yl]acetamide] was 4 nM; that for `CNC(=O)c1ccc2cnc(N[C@H]3CC[C@H](O)CC3)nc2c1` [Example 58, 2-[(trans-4-hydroxycyclohexyl)amino]-N-methylquinazoline-7-carboxamide] was 261 nM; that for `CN(C)C(=O)c1ccc2cnc(N[C@H]3CC[C@H](O)CC3)nc2c1` [Example 59, 2-[(trans-4-hydroxycyclohexyl)amino]-N,N-dimethylquinazoline-7-carboxamide] was 4340 nM.

Broadly, the Ki is a measure of affinity in units of concentration, obtained from inhibition or displacement. Low readings indicate higher affinity, high ones lower affinity.

The values are drawn from US7998978B2 (Pfizer Inc., priority 2006, dated 2011).
